# Assays:
# [1] = tested on: lumen formed in angiogenesis kit with VEGF-A; experiment: Angiogenesis inhibitory action (angiogenesis kit, VEGF-A, CD31 staining, area and length of lumen); type: cell-based; settings: 5 μg/mL, VEGF-A 10 ng/mL, 11 days
# From the text: Angiogenesis Inhibitory Action
# The angiogenesis inhibitory action of a test substance (Compound 3) was examined by use of measuring reagents and analysis software described below.
# 1. Measuring Reagents and Analysis Software
# Angiogenesis kit (Cat. No. KZ-1000), manufactured by KURABO INDUSTRIES LTD.
# Angiogenic agent VEGF-A (Cat. No. KZ-1350), manufactured by KURABO INDUSTRIES LTD.
# Lumen staining kit (for staining CD31, Cat. No. ZHA-1225), manufactured by KURABO INDUSTRIES LTD.
# Image analysis software: Angiogenesis Image Analyzer V2.0, manufactured by KURABO INDUSTRIES LTD.
# Herein, as a culture medium, angiogenesis specific medium-2 (hereinafter referred to as the medium) provided in the above angiogenesis kit.
# Positive control: Medium containing VEGF-A (10 ng/mL)
# Negative control: Medium containing VEGF-A (10 ng/mL) and Suramin (50 μmol/L)
# 3. Preparation of Samples
# A test substance was weighed at the starting day of a test. The medium was added so as to be 500 μg/mL. Sonication was performed while heating at 37° C. for 60 minutes to be dissolved. Then, filtration was performed by a 0.22 μm filter. The 500 μg/mL-solution was serially diluted with the medium in a common ratio of 10. […]
# The pictures were subjected to image analysis by use of image analysis software, Angiogenesis Image Analyzer V 2.0, and the area and length of the lumen formed were measured.
# [2] = tested on: RBL-2H3 cells; experiment: Degranulation suppression test of RBL-2H3 cells (β-hexosaminidase release, IgE stimulation); type: cell-based, Rat; settings: for Degranulation ratio: relative to untreated control, n = 4
# Procedure: 1. Degranulation Suppression Test of RBL-2H3 Cells
# As to Compound 3, the granule release (degranulation) suppression action on RBL-2H3 cell by IgE stimulation, which is a cell model for an allergic reaction, was examined.
# A test substance (50 mg) was dissolved by adding 1 mL of 50 vol % ethanol to the test substance to obtain a concentration of 50 mg/mL. The solution thus obtained was diluted with a buffer solution. […] The concentrations were all indicated as the concentrations in cell supernatants.
# β-Hexosaminidase abundantly present in granules of RBL-2H3 cells was used as the index of degranulation caused by IgE stimulation, and p-nitrophenol produced by the reaction with a substrate was measured by colorimetric assay. The activity values of β-hexosaminidase present within cells and released in the culture supernatant were determined to obtain the release rate of β-hexosaminidase, and then, a degranulation rate relative to an untreated control was obtained. Based on this, degranulation inhibitory action was evaluated.
# Main test conditions and outline of the operation will be described below.
# Cell: Rat basophil leukemic cell, RBL-2H3 [Human Sciences Foundation]
# Stimulation of degranulation: Anti-DNP-IgE antibody, DNP labeled albumin [Sigma-Aldrich Corporation]
# Degranulation Index: 3-Hexosaminidase activity
# Measurement apparatus: Microplate reader, SpectraMax M2c • [Molecular Devices Corporation]
# In this test, an action to suppress granule release (degranulation) in mast cells caused by an IgE antigen stimulation is evaluated. Thus, the smaller the degranulation ratio is, the stronger the effect is […]
# [3] = tested on: Trichophyton mentagrophytes NBRC5466 (trichophyton); experiment: Antifungal test, minimum inhibitory concentration (MIC), trichophyton; type: cell-based; settings: NBRC5466, 168 h, 27±2° C., 7 days
# Procedure: Antimicrobial/Antifungal Test
# Measurement of the Minimum Inhibitory Concentration (MIC) of a Test Substance
# The minimum inhibitory concentration (MIC) of test substances (Compound 3, Compound 7) on a microorganism was measured.
# 1) Test Microbe (a) Staphylococcus aureus MRSAIID 1677 (methicillin-resistant staphylococcus aureus; MRSA) (b) Trichophyton mentagrophytes NBRC5466 (trichophyton)
# 2) Preparation of Microbe Solution for Inoculation
# Test microbe (b): A strain cryopreserved was applied on PDA medium and cultured at 27±2° C. for 7 days. Spores were scraped out and suspended in a test microbe preparation solution, filtered with absorbent cotton. The solution was prepared so as to have a number of spores of about 10^6 CFU/mL. The test microbe solution prepared was serially diluted by 10-fold and cultured at 27±2° C. for 7 days and then the microbe cells were counted.
# 3) Serial Dilution of Test Substance
# Two-fold serial dilutions of a test substance were prepared in the following procedure. To a test substance (1 mg), a medium (5 mL) for measuring the sensitivity of each microbe strains was added to obtain a stock solution of 200 μg/mL. […]
# A test microbe solution (5 μL) was added dropwise to individual wells of the microplate. […] After culture, whether the microbe proliferated or not was determined by the naked eye. […]
SMILES,angiogenesis inhibitory effect (area and length of lumen) [1],"cytotoxicity (visual) ([2]; RBL-2H3 cells, any concentration)",Degranulation ratio ([2]; sample 1 μg/mL),Degranulation ratio ([2]; sample 10 μg/mL),Degranulation ratio ([2]; sample 25 μg/mL),Degranulation ratio ([2]; sample 50 μg/mL in cell supernatant),Degranulation ratio ([2]; sample 100 μg/mL in cell supernatant),MIC [3]
"O=C(Nc1ccc(S(F)(F)(F)(F)F)cc1)c1cc(O)c(O)c(O)c1 [Compound 3, 4-(3,4,5-trihydroxybenzoylamino)pentafluorosulfanylbenzene]",angiogenesis inhibitory effect was confirmed,not visually confirmed,91%,85%,73%,35%,19%,
"O=C(Oc1ccc(S(F)(F)(F)(F)F)cc1)c1cc(O)c(O)c(O)c1 [Compound 7, 4-(3,4,5-trihydroxybenzoyloxy)pentafluorosulfanylbenzene]",,,,,,,,6.3 µg/mL

# Reference: patent US9682931B2, “Aryloyl(oxy or amino)pentafluorosulfanylbenzene compound, pharmaceutically acceptable salt thereof, and prodrugs thereof” (UBE INDUSTRIES, LTD., priority 2013, dated 2017)
